Consider one molecule from paper PMC12196476, “New Nitrogen-, Oxygen-, and Sulfur-Containing Heterocyclic Compounds as Anti-Colon Cancer Agents: Synthesis, Multitargeted Evaluations, Molecular Docking Simulations and ADMET Predictions” (Pharmaceuticals, 2025).

For experiment [1], the system named is HCT-116 cells. The experiment is described as follows: Mitochondrial membrane potential (TMRE staining), HCT-116. The conditions noted are these: 30 µg/mL, 48 h. The class given is cell-based, human. As for the experimental part: (§1) To assess mitochondrial integrity, TMRE staining was used to measure ΔΨm.
(§2) The mitochondrial transmembrane potential was measured using a tetramethylrhodamine, ethyl ester (TMRE) mitochondrial membrane potential assay kit. […]
(§3) medium served used as negative and positive controls, respectively. Percentages of viable cells […]
(§4) wells (final concentration of 100 μg/mL), compared to the negative control, and expressed as mean value (%) ± SD from two replicates. Graphing dose-response curves representing the compound […]
(§5) (HUVECs) at final concentration of 100 μg/mL . HUVECs were grown in Dulbecco’s Modified Eagle’s Medium supplemented with 10% FBS, 2 mM glutamine (Sigma Aldrich), 100 units/mL penicillin and […] streptomycin (Life Technologies; Paisley, UK).
(§6) S3.2.5. Cell cycle assay.
(§7) HCT-116 and LoVo cultures upon treatment with compound 3d. HCT-116 and LoVo carcinoma […]
(§8) μg/mL for 48 h. […] Then, cells […]
(§9) were fixed by mixing […] of 90% cold ethanol and stained with propidium iodide (PI) for 1 h at 37 °C. […]
(§10) of stained cancerous cells were determined. […]
(§11) carcinoma cells treated with compound 3d was assessed using the TMRE Mitochondrial Membrane […]
(§12) for TMRE staining. TMRE was excited using a 488 nm laser and detected in the FL2 channel at 575 […]
(§13) S3.2.9. Quantification of the Expression Levels of Bax, Bcl-2 and Caspase-3 Genes […]

The target in experiment [2] is PDK-1 (Homo sapiens, UniProt Q15118). The experiment is described as follows: In vitro PDK-1 inhibition assay (Kinase-Glo luminescent kinase kit). The class given is biochemical.
The test system of experiment [3] is LoVo cells. Kind of experiment: Mitochondrial membrane potential (TMRE staining), LoVo. Particulars: 30 µg/mL, 48 h. Format: cell-based, human. The method, then: as §1, §2, §3, §4, §5, §6, §7, §8, §9, §10, §11, §12, §13

SMILES strings stand for the structures.

Sequence of PDK-1 (Q15118 29-436): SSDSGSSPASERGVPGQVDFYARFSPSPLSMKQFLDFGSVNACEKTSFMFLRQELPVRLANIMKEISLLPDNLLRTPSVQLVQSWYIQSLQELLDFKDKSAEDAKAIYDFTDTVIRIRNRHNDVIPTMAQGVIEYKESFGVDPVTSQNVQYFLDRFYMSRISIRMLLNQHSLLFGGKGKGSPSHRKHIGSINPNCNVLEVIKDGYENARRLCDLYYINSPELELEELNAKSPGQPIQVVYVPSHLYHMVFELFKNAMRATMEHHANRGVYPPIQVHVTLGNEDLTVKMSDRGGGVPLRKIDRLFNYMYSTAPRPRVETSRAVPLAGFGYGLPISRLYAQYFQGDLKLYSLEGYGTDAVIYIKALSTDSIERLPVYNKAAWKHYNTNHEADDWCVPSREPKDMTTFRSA

As for `COc1cc(/C=N/c2ncnc3sc4c(c23)CCCC4)cc(OC)c1OC` [Compound 3d, (E)-N-(5,6,7,8-Tetrahydrobenzo[4,5]thieno[2,3-d]pyrimidin-4-yl)-1-(3,4,5-trimethoxyphenyl)methanimine], the “Reduction of mitochondrial membrane potential (ΔΨm), HCT-116 cells” value in experiment [1] turned out to be 43.47 ± 0.81%. For the same molecule, the inhibition at 100 µg/mL in experiment [2] (100 µg/mL, three replicates, read-out: Mean Inhibition Percent ± SD, PDK-1) was 41.8 ± 3.39%. Also, in experiment [2] (three independent experiments, read-out: Mean IC50 µM ± SD, PDK-1), the IC50 stood at 305 ± 11.1 µM. The “Reduction of mitochondrial membrane potential (ΔΨm), LoVo cells” value in experiment [3] came out at 60.23 ± 1.87%.
